Measured values reported in patent US11071731B2, “Allosteric modulators of the mu opioid receptor” (Chiromics, LLC, priority 2017, dated 2021).

Legend:
MOR [1] = molecular target: T1, MOR (Homo sapiens, UniProt P35372); experiment: EM1 concentration-response curves for β-arrestin recruitment with or without compound, full functional allosteric model; assay type: cell-based
MOR [2] = molecular target: T1, MOR; experiment: cell-based; conditions: EC20 Oxycodone agonism of MOR
CD1 mice = experiment: Warm water tail-flick assay, compound alone (basal EM1 only); assay type: in vivo; conditions: 15 mg/kg subcutaneous, 30 minutes after dosing, no exogenous EM1
From the text: An acute pain model was used to determine the analgesic effect of a MOR PAM administered by itself (i.e., in the absence of exogenous opioid). This approach avoids the complexity of matching the pharmacokinetic profile of endomorphin release in response to a pain-inducing insult with a (1) particular MOR PAM (to account for basal endomorphin analgesis) and (2) the measurement window of the study, as would be required for a chronic pain study. Accordingly, an acute pain model, in which the pharmacodynamic measurement was performed directly after the insult, was employed. This was expected to isolate the low basal levels of EM1 analgesis that existed prior to the insult, thereby eliminating the contribution of the time course of release of endogenous opioids in response to the insult. Mousa et al., supra.
The warm water tail-flick assay was chosen as the acute pain model for the reasons described above. […] Przewlocka et al., (1999), supra. First, minimum and sub-efficacious dose of EM1, applied via intrathecal injection to rats, were identified. […] In addition, the time required for maximal response to an intrathecal injection of EM1 to be observed, as well as the time required for a return to basal levels of antinociception, were determined and likewise found to be in agreement with those found in the literature. […]

T1 sequence (P35372 whole entry): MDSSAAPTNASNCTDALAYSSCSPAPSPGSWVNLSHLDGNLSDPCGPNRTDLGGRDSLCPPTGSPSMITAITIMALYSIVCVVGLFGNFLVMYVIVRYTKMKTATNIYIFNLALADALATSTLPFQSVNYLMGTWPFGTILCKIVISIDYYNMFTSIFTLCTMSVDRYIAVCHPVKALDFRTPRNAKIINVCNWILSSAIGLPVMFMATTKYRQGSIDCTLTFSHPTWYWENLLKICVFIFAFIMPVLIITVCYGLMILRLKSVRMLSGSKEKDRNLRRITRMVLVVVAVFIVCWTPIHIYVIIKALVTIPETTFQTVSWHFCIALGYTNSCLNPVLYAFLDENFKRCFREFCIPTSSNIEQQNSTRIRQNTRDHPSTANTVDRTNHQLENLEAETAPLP

Fc1cnc(Cl)nc1N1CCCCC1c1cccc(C(F)(F)F)c1 (single isomer, unassigned) [compound 9]
effective potency for PAM effect (MOR [1]): 0.0708 µM
factor of increase of the affinity (α) of EM1 (MOR [1]): 9
factor of increase of the efficacy (β) of EM1 (MOR [1]): 3
shift in the potency of EM1 (MOR [1]): concentration-dependent and saturable leftward shifts
αβ product, in vitro (MOR [1]; β-arrestin endomorphin responses): 27
EC50 (MOR [2]; RC50, cAMP): 3.18 µM
Max. Response (MOR [2]; cAMP): 40
antinociceptive effect, tail-flick latency (CD1 mice): No antinociceptive effects were observed
